How the values were obtained:
IL-6 mRNA [1] = test: LPS-stimulated IL-6 mRNA expression in mouse B cells (real time PCR); assay type: cell-based; conditions: then 10 μg/mL LPS 4 h, vs LPS-treated group
Description: (§1) Mouse B cells were pre-cultured with RPMI1640 medium for 1 day. After incubation, mouse B cells were treated with 10 μM mangiferin 8a, 10 μM norathyriol, 1 μM M9, and 1 μM M14 for 1 day. Then, 10 μg/mL LPS was added to mouse B cells and cultured for 4 h. After incubation, cells were collected, RNA was extracted, and TNFα mRNA expression was measured by real time PCR.
The inhibitory effect of compounds on IL-6 mRNA expression involved in cytokine storm was examined using mouse B cells. The experimental procedure is the same as in Example 1.
(§2) For controls, only 0.5% DMSO (diluted in PBS) used to dissolve the compounds was added. 10 μg/mL LPS administered is called the LPS-treated group, LPS and mangiferin 8a administered in combination is called the mangiferin 8a-treated group, LPS and norathyriol administered in combination is called the norathyriol group, LPS and M9 administered in combination is called the M9-treated group, LPS and M14 administered in combination is called the M14-treated group, respectively.

TNFα [2] = test: LPS-stimulated TNFα production in mouse macrophages (ELISA); assay type: cell-based; conditions: culture supernatant, then 10 μg/mL LPS 2 days, control 24.11, LPS alone 421.13 pg/mL
Description: The inhibitory effect of compounds on TNFα production involved in cytokine storm was examined using mouse macrophages.
(§3) Mouse macrophages were pre-cultured with RPMI1640 medium for 1 day. After incubation, mouse macrophages were treated with 10 μM mangiferin 8a, 10 μM norathyriol, 1 μM M9, and 1 μM M14 for 1 day. Then, 10 μg/mL LPS was added to mouse macrophages and cultured for 2 days. After incubation, the culture supernatant was collected and TNFα production was determined by enzyme-linked immunosorbent assay (ELISA). This measurement was performed using a mouse TNFα ELISA kit (R&D).

IL-6 [3] = test: LPS-stimulated IL-6 production in mouse macrophages (ELISA); assay type: cell-based; conditions: culture supernatant, then 10 μg/mL LPS 2 days, control 13.13, LPS alone 321.13 pg/mL
Description: The inhibitory effect of compounds on IL-6 production involved in cytokine storm was examined using mouse macrophages.
as §3, with “IL-6” for “TNFα”

TNFα mRNA [4] = test: LPS-stimulated TNFα mRNA expression in mouse B cells (real time PCR); assay type: cell-based; conditions: then 10 μg/mL LPS 4 h, vs LPS-treated group
Description: The inhibitory effect of compounds on TNFα mRNA expression involved in cytokine storm was examined using mouse B cells.
as §1, §2

IL-6 mRNA [5] = test: LPS-stimulated IL-6 mRNA expression in mouse macrophages (real time PCR); assay type: cell-based; conditions: then 10 μg/mL LPS 4 h, vs LPS-treated group
Description: as §1, with “macrophages” for “B cells”
The inhibitory effect of compounds on IL-6 mRNA expression involved in cytokine storm was examined using mouse macrophages.
as §2, with “The experimental procedure is the same as in Example 3. […] For” for “For”

TNFα [6] = test: LPS-stimulated TNFα production in mouse B cells (ELISA); assay type: cell-based; conditions: culture supernatant, then 10 μg/mL LPS 2 days, control 15.13, LPS alone 296.31 pg/mL
Description: The inhibitory effect of compounds on TNFα production involved in cytokine storm was examined using mouse B cells.
as §3, with “B cells” for “macrophages”

TNFα mRNA [7] = test: LPS-stimulated TNFα mRNA expression in mouse macrophages (real time PCR); assay type: cell-based; conditions: then 10 μg/mL LPS 4 h, vs LPS-treated group
Description: The inhibitory effect of compounds on TNFα mRNA expression involved in cytokine storm was examined using mouse macrophages.
as §1, with “macrophages” for “B cells”
as §2

TNFα [8] = test: Serum TNFα production in mice treated with compound and LPS (ELISA); assay type: in vivo; conditions: C57BL/6J mice, 25 mg/kg LPS i.p., serum 2 hours after LPS, control 1.55, LPS alone 10.28 ng/mL
Description: (§4) Six-week-old male C57BL/6J (Shimizu experimental material) was orally administered 100 mg/kg norathyriol, 50 mg/kg M9, and 50 mg/kg M14. Five minutes later, 25 mg/kg LPS was administered intraperitoneally. Serum was collected from mice 2 hours after LPS administration, and the amount of TNFα production involved in the cytokine storm was measured by enzyme-linked immunosorbent assay (ELISA). This measurement was performed using a mouse TNFα ELISA kit (R&D).
(§5) Those not receiving the compound and LPS are referred to as the control group, those receiving 25 mg/kg LPS are referred to as the LPS group, those receiving 100 mg/kg norathyriol and 25 mg/kg LPS are referred to as the norathyriol-treated group, those receiving 50 mg/kg M9 and 25 mg/kg LPS are referred to as the M9-treated group, and those receiving 50 mg/kg M14 and 25 mg/kg LPS are referred to as the M14-treated group.

IL-6 [9] = test: LPS-stimulated IL-6 production in mouse B cells (ELISA); assay type: cell-based; conditions: culture supernatant, then 10 μg/mL LPS 2 days, control 9.46, LPS alone 246.13 pg/mL
Description: The inhibitory effect of compounds on IL-6 production involved in cytokine storm was examined using mouse B cells.
as §3, with “B cells” for “macrophages”, “IL-6” for “TNFα”, “IL-6 ELISAkit” for “TNFα ELISA kit”

IL-6 [10] = test: Serum IL-6 production in mice treated with compound and LPS (ELISA); assay type: in vivo; conditions: C57BL/6J mice, 25 mg/kg LPS i.p., serum 2 hours after LPS, control 2.75, LPS alone 20.1 ng/mL
Description: as §4, with “IL-6” for “TNFα”
as §5

male C57BL/6J = test: Survival rate of mice treated with compound and LPS (lethality in cytokine storm); assay type: in vivo; conditions: C57BL/6J mice, 25 mg/kg LPS i.p. 5 min later, day 2, compared to LPS group
Description: Six-week-old male C57BL/6J (SHIMIZU Laboratory Supplies Co., Ltd.) were orally administered 50 mg/kg mangiferin 8a, 100 mg/kg norathyriol, 50 mg/kg M9, and 50 mg/kg M14. Five minutes later, 25 mg/kg LPS was administered intraperitoneally. The day of administration was set as day 0, and the survival rate was measured on day 2.
as §5, with “the LPS group, those receiving 50 mg/kg mangiferin 8a and 25 mg/kg LPS are referred to as the mangiferin 8a-treated group, those” for “the LPS group, those”
Referring to FIG. 9, the horizontal axis indicates compound treatment, and the vertical axis indicates survival rate (%).

Structure (SMILES)	LPS-induced IL-6 mRNA expression (ratio to GAPDH mRNA) (IL-6 mRNA [1]; 1 μM compound 1 day)	TNFα production (TNFα [2]; 1 μM compound 1 day) [pg/mL]	IL-6 production (IL-6 [3]; 1 μM compound 1 day) [pg/mL]	LPS-induced TNFα mRNA expression (ratio to GAPDH mRNA) (TNFα mRNA [4]; 1 μM compound 1 day)	LPS-induced IL-6 mRNA expression (ratio to GAPDH mRNA) (IL-6 mRNA [5]; 1 μM compound 1 day)	TNFα production (TNFα [6]; 1 μM compound 1 day) [pg/mL]	LPS-induced TNFα mRNA expression (ratio to GAPDH mRNA) (TNFα mRNA [7]; 1 μM compound 1 day)	TNFα production in serum (TNFα [8]; 50 mg/kg oral) [ng/mL]	IL-6 production (IL-6 [9]; 1 μM compound 1 day) [pg/mL]	IL-6 production in serum (IL-6 [10]; 50 mg/kg oral) [ng/mL]	survival rate (male C57BL/6J; 50 mg/kg oral)	LPS-induced IL-6 mRNA expression (ratio to GAPDH mRNA) (IL-6 mRNA [1]; 10 μM compound 1 day)	TNFα production (TNFα [2]; 10 μM compound 1 day) [pg/mL]	IL-6 production (IL-6 [3]; 10 μM compound 1 day) [pg/mL]	LPS-induced TNFα mRNA expression (ratio to GAPDH mRNA) (TNFα mRNA [4]; 10 μM compound 1 day)	LPS-induced IL-6 mRNA expression (ratio to GAPDH mRNA) (IL-6 mRNA [5]; 10 μM compound 1 day)	TNFα production (TNFα [6]; 10 μM compound 1 day) [pg/mL]	LPS-induced TNFα mRNA expression (ratio to GAPDH mRNA) (TNFα mRNA [7]; 10 μM compound 1 day)	IL-6 production (IL-6 [9]; 10 μM compound 1 day) [pg/mL]	also measured
CCC(=O)OC[C@H]1O[C@@H](c2c(O)cc3oc4cc(O)c(O)cc4c(=O)c3c2O)[C@H](OC(=O)CC)[C@@H](OC(=O)CC)[C@@H]1OC(=O)CC [M9, 2′,3′,4′,6′-tetra-O-propionylmangiferin]	decrease in LPS-induced IL-6 mRNA expression	58.13	49.46	decrease in LPS-induced TNFα mRNA expression	decrease in LPS-induced IL-6 mRNA expression	55.13	decrease in LPS-induced TNFα mRNA expression	5.68	45.12	15.15	significantly reduced the decrease in survival	–	–	–	–	–	–	–	–	–
CCCC(=O)OC[C@H]1O[C@@H](c2c(O)cc3oc4cc(O)c(O)cc4c(=O)c3c2O)[C@H](OC(=O)CCC)[C@@H](OC(=O)CCC)[C@@H]1OC(=O)CCC [M14, 2′,3′,4′,6′-tetra-O-butyrylmangiferin]	decrease in LPS-induced IL-6 mRNA expression	54.13	45.13	decrease in LPS-induced TNFα mRNA expression	decrease in LPS-induced IL-6 mRNA expression	46.13	decrease in LPS-induced TNFα mRNA expression	5.2	45.13	14.26	significantly reduced the decrease in survival	–	–	–	–	–	–	–	–	–
CCC(=O)OC[C@H]1O[C@@H](c2c(O)cc3oc4cc(O)c(O)cc4c(=O)c3c2OC(=O)CC)[C@H](OC(=O)CC)[C@@H](OC(=O)CC)[C@@H]1OC(=O)CC [mangiferin 8a, 1,2′,3′,4′,6′-penta-O-propionylmangiferin]	–	–	–	–	–	–	–	–	–	–	significantly reduced the decrease in survival	decrease in LPS-induced IL-6 mRNA expression	65.13	69.16	decrease in LPS-induced TNFα mRNA expression	decrease in LPS-induced IL-6 mRNA expression	59.31	decrease in LPS-induced TNFα mRNA expression	54.13	–
O=c1c2cc(O)c(O)cc2oc2cc(O)cc(O)c12 [norathyriol, 1,3,6,7-tetrahydroxyxanthone]	–	–	–	–	–	–	–	–	–	–	–	decrease in LPS-induced IL-6 mRNA expression	68.13	64.13	decrease in LPS-induced TNFα mRNA expression	decrease in LPS-induced IL-6 mRNA expression	64.13	decrease in LPS-induced TNFα mRNA expression	56.13	TNFα production in serum (TNFα [8]; 100 mg/kg oral): 2.71 ng/mL; IL-6 production in serum (IL-6 [10]; 100 mg/kg oral): 11.37 ng/mL; survival rate (male C57BL/6J; 100 mg/kg oral): significantly reduced the decrease in survival

Source: patent publication US20240115589A1, “PHARMACEUTICAL COMPOSITION FOR PREVENTING CYTOKINE STORM” (KINKI UNIVERSITY, priority 2021, published 2024)
